Like-named read-outs stand apart in the source and are kept apart here.
Assays:
[1] = system: SARS-CoV-2 (USA_WA1/2020); assay: Antiviral Activity from SARS-CoV-2 Infection (cytopathic effect, Cell Titer-Glo); format: cell-based; conditions: VeroE6 cells enriched for hACE2, MOI 0.002, 3-day incubation, tested alone or with P-gp inhibitor CP-100356 2 μM (table does not say which), read-out: Geometric Mean EC50
[2] = target: T1, SARS-CoV-2 3CL protease (Severe acute respiratory syndrome coronavirus 2, UniProt P0DTD1); assay: SARS-CoV-2 Coronavirus 3C Protease FRET Assay; format: biochemical; conditions: Morrison equation fit, 15 nM enzyme, 25 μM peptide substrate
T1 construct: measures the activity of full-length SARS-CoV-2 3CL protease

[3] = Severe acute respiratory syndrome coronavirus 2, Vero C1008, 72 h
[4] = Examples 1-13, 60 minutes at 23° C., read-out: Geometric Mean Ki
[5] = Examples 14-78 and 114 (second head of Table 2), read-out: Geometric Mean Ki (nM) IC50

| Compound | EC50 [1, 3] [nM] | Ki [2, 4] [nM] | Ki [2, 5] [nM] | EC50 [1] [nM] |
| --- | --- | --- | --- | --- |
| Cn1nc(C(F)(F)F)cc1OCC(=O)[C@H](C[C@@H]1CCNC1=O)NC(=O)[C@@H]1[C@@H]2[C@H](CN1C(=O)[C@@H](NS(C)(=O)=O)C(C)(C)C)C2(C)C [Example 7, (1R,2S,5S)-6,6-dimethyl-3-[3-methyl-N-(methylsulfonyl)-L-valyl]-N-{(2S)-4-{[1-methyl-3-(trifluoromethyl)-1H-pyrazol-5-yl]oxy}-3-oxo-1-[(3S)-2-oxopyrrolidin-3-yl]butan-2-yl}-3-azabicyclo[3.1.0]hexane-2-carboxamide] | 1260 | 2.88 | – | – |
| COC(=O)N[C@H](C(=O)N1C[C@H]2[C@@H]([C@H]1C(=O)N[C@@H](C[C@@H]1CCNC1=O)C(=O)COc1cccc(C(F)(F)F)c1)C2(C)C)C(C)(C)C [Example 17, methyl {(2S)-1-[(1R,2S,5S)-6,6-dimethyl-2-({(2S)-3-oxo-1-[(3S)-2-oxopyrrolidin-3-yl]-4-[3-(trifluoromethyl)phenoxy]butan-2-yl}carbamoyl)-3-azabicyclo[3.1.0]hexan-3-yl]-3,3-dimethyl-1-oxobutan-2-yl}carbamate] | 13.3 | – | < 0.443 | – |
| CC(C)(C)[C@H](NC(=O)C(F)(F)F)C(=O)N1C[C@H]2[C@@H]([C@H]1C(=O)N[C@@H](C[C@@H]1CCNC1=O)C(=O)COc1cccc(C(F)(F)F)c1)C2(C)C [Example 12, (1R,2S,5S)-6,6-dimethyl-3-[3-methyl-N-(trifluoroacetyl)-L-valyl]-N-{(2S)-3-oxo-1-[(3S)-2-oxopyrrolidin-3-yl]-4-[3-(trifluoromethyl)phenoxy]butan-2-yl}-3-azabicyclo[3.1.0]hexane-2-carboxamide] | 51.2 | 6.38 | – | – |
| CC(C)[C@H](NS(C)(=O)=O)C(=O)N1CCC2(CC2)C[C@H]1C(=O)N[C@@H](C[C@@H]1CCNC1=O)C(=O)COc1ccc(F)cc1F (single isomer, unassigned) [Example 59, (5R*)-N-{(2S)-4-(2,4-difluorophenoxy)-3-oxo-1-[(3S)-2-oxopyrrolidin-3-yl]butan-2-yl}-6-[N-(methanesulfonyl)-L-valyl]-6-azaspiro[2.5]octane-5-carboxamide, DIAST-1] | – | – | 9.27 | 299 |
| Cc1nsnc1OCC(=O)[C@H](C[C@@H]1CCNC1=O)NC(=O)[C@@H]1[C@@H]2[C@H](CN1C(=O)[C@@H](NC(=O)C(F)(F)F)C(C)C)C2(C)C [Example 46, (1R,2S,5S)-6,6-dimethyl-N-{(2S)-4-[(4-methyl-1,2,5-thiadiazol-3-yl)oxy]-3-oxo-1-[(3S)-2-oxopyrrolidin-3-yl]butan-2-yl}-3-[N-(trifluoroacetyl)-L-valyl]-3-azabicyclo[3.1.0]hexane-2-carboxamide] | – | – | 8.21 | – |
| CC(C)[C@H](NC(=O)C(F)(F)F)C(=O)N1C[C@H]2[C@@H]([C@H]1C(=O)N[C@@H](C[C@@H]1CCNC1=O)C(=O)COc1ncnn1-c1ccccc1)C2(C)C [Example 64, (1R,2S,5S)-6,6-dimethyl-N-{(2S)-3-oxo-1-[(3S)-2-oxopyrrolidin-3-yl]-4-[(1-phenyl-1H-1,2,4-triazol-5-yl)oxy]butan-2-yl}-3-[N-(trifluoroacetyl)-L-valyl]-3-azabicyclo[3.1.0]hexane-2-carboxamide] | 5360 | – | 62.2 | – |
| CC(C)[C@H](NC(=O)C(F)(F)F)C(=O)N1C[C@H]2[C@@H]([C@H]1C(=O)N[C@@H](C[C@@H]1CCNC1=O)C(=O)COc1cc(F)cc(F)c1)C2(C)C [Example 58, (1R,2S,5S)-N-{(2S)-4-(3,5-difluorophenoxy)-3-oxo-1-[(3S)-2-oxopyrrolidin-3-yl]butan-2-yl}-6,6-dimethyl-3-[N-(trifluoroacetyl)-L-valyl]-3-azabicyclo[3.1.0]hexane-2-carboxamide] | 88.7 | – | 17.1 | – |
| CC(C)(C)[C@H](NS(=O)(=O)C(F)(F)F)C(=O)N1C[C@H]2[C@@H]([C@H]1C(=O)N[C@@H](C[C@@H]1CCNC1=O)C(=O)COc1cc(F)ccc1F)C2(C)C [Example 34, (1R,2S,5S)-N-{(2S)-4-(2,5-difluorophenoxy)-3-oxo-1-[(3S)-2-oxopyrrolidin-3-yl]butan-2-yl}-6,6-dimethyl-3-[3-methyl-N-(trifluoromethanesulfonyl)-L-valyl]-3-azabicyclo[3.1.0]hexane-2-carboxamide] | 86 | – | 6.95 | – |
| Cc1ccc2nc(OCC(=O)[C@H](C[C@@H]3CCNC3=O)NC(=O)[C@@H]3[C@@H]4[C@H](CN3C(=O)[C@@H](NC(=O)C(F)(F)F)C(C)C)C4(C)C)oc2c1 [Example 72, (1R,2S,5S)-6,6-dimethyl-N-{(2S)-4-[(6-methyl-1,3-benzoxazol-2-yl)oxy]-3-oxo-1-[(3S)-2-oxopyrrolidin-3-yl]butan-2-yl}-3-[N-(trifluoroacetyl)-L-valyl]-3-azabicyclo[3.1.0]hexane-2-carboxamide] | 19000 | – | 505 | – |
| CC(C)[C@H](NC(=O)C(F)(F)F)C(=O)N1C[C@H]2[C@@H]([C@H]1C(=O)N[C@@H](C[C@@H]1CCNC1=O)C(=O)COc1cnsn1)C2(C)C [Example 62, (1R,2S,5S)-6,6-dimethyl-N-{(2S)-3-oxo-1-[(3S)-2-oxopyrrolidin-3-yl]-4-[(1,2,5-thiadiazol-3-yl)oxy]butan-2-yl}-3-[N-(trifluoroacetyl)-L-valyl]-3-azabicyclo[3.1.0]hexane-2-carboxamide] | 1870 | – | 55.7 | – |
| CC(C)[C@H](NC(=O)C(F)(F)F)C(=O)N1C[C@H]2[C@@H]([C@H]1C(=O)N[C@@H](C[C@@H]1CCNC1=O)C(=O)COc1cccc(Cl)c1)C2(C)C [Example 50, (1R,2S,5S)-N-{(2S)-4-(3-chlorophenoxy)-3-oxo-1-[(3S)-2-oxopyrrolidin-3-yl]butan-2-yl}-6,6-dimethyl-3-[N-(trifluoroacetyl)-L-valyl]-3-azabicyclo[3.1.0]hexane-2-carboxamide] | 76.2 | – | 10.7 | – |
| CC(C)[C@H](NC(=O)C(F)(F)F)C(=O)N1C[C@H]2[C@@H]([C@H]1C(=O)N[C@@H](C[C@@H]1CC(O)NC1=O)C(=O)COc1ccc(F)cc1F)C2(C)C (stereo partly drawn) [Example 39, (1R,2S,5S)-N-{(2S)-4-(2,4-difluorophenoxy)-1-[(3R)-5-hydroxy-2-oxopyrrolidin-3-yl]-3-oxobutan-2-yl}-6,6-dimethyl-3-[N-(trifluoroacetyl)-L-valyl]-3-azabicyclo[3.1.0]hexane-2-carboxamide] | 306 | – | 3.7 | – |
| COCC(=O)[C@H](C[C@@H]1CCNC1=O)NC(=O)[C@@H]1CC(C(C)(C)C)CCN1C(=O)[C@@H](NS(=O)(=O)C(F)(F)F)C(C)C (single isomer, unassigned) [Example 15, (2R*,4S*)-4-tert-butyl-N-{(2S)-4-methoxy-3-oxo-1-[(3S)-2-oxopyrrolidin-3-yl]butan-2-yl}-1-[N-(trifluoromethanesulfonyl)-L-valyl]piperidine-2-carboxamide, DIAST-1] | 272 | – | – | – |
| CCc1cc(OCC(=O)[C@H](C[C@@H]2CCNC2=O)NC(=O)[C@@H]2[C@@H]3[C@H](CN2C(=O)[C@@H](NC(=O)OC)C(C)(C)C)C3(C)C)n(C)n1 [Example 37, methyl {(2S)-1-[(1R,2S,5S)-2-({(2S)-4-[(3-ethyl-1-methyl-1H-pyrazol-5-yl)oxy]-3-oxo-1-[(3S)-2-oxopyrrolidin-3-yl]butan-2-yl}carbamoyl)-6,6-dimethyl-3-azabicyclo[3.1.0]hexan-3-yl]-3,3-dimethyl-1-oxobutan-2-yl}carbamate] | 900 | – | – | – |
| Cc1ccc(OCC(=O)[C@H](C[C@@H]2CCNC2=O)NC(=O)[C@@H]2[C@@H]3[C@H](CN2C(=O)[C@@H](NC(=O)C(F)(F)F)C(C)C)C3(C)C)cn1 [Example 18, (1R,2S,5S)-6,6-dimethyl-N-{(2S)-4-[(6-methylpyridin-3-yl)oxy]-3-oxo-1-[(3S)-2-oxopyrrolidin-3-yl]butan-2-yl}-3-[N-(trifluoroacetyl)-L-valyl]-3-azabicyclo[3.1.0]hexane-2-carboxamide] | 114 | – | – | – |
| COC(=O)N[C@H](C(=O)N1C[C@H]2[C@@H]([C@H]1C(=O)N[C@@H](C[C@@H]1CCNC1=O)C(=O)COc1cc(C(F)(F)F)nn1C)C2(C)C)C(C)C [Example 36, methyl {(2S)-1-[(1R,2S,5S)-6,6-dimethyl-2-({(2S)-4-{[1-methyl-3-(trifluoromethyl)-1H-pyrazol-5-yl]oxy}-3-oxo-1-[(3S)-2-oxopyrrolidin-3-yl]butan-2-yl}carbamoyl)-3-azabicyclo[3.1.0]hexan-3-yl]-3-methyl-1-oxobutan-2-yl}carbamate] | 256 | – | – | – |
| CC(C)(C)[C@H](NS(=O)(=O)C(F)(F)F)C(=O)N1C[C@H]2[C@@H]([C@H]1C(=O)N[C@@H](C[C@@H]1CCNC1=O)C(=O)COc1ccc(F)c(F)c1)C2(C)C [Example 114, (1R,2S,5S)-N-{(2S)-4-(3,4-difluorophenoxy)-3-oxo-1-[(3S)-2-oxopyrrolidin-3-yl]butan-2-yl}-6,6-dimethyl-3-[3-methyl-N-(trifluoromethanesulfonyl)-L-valyl]-3-azabicyclo[3.1.0]hexane-2-carboxamide] | – | – | 2.53 | – |
| CC(C)[C@H](NC(=O)C(F)(F)F)C(=O)N1C[C@H]2[C@@H]([C@H]1C(=O)N[C@@H](C[C@@H]1CCNC1=O)C(=O)COc1nnc(C(C)(C)C)n1C)C2(C)C [Example 78, (1R,2S,5S)-N-{(2S)-4-[(5-tert-butyl-4-methyl-4H-1,2,4-triazol-3-yl)oxy]-3-oxo-1-[(3S)-2-oxopyrrolidin-3-yl]butan-2-yl}-6,6-dimethyl-3-[N-(trifluoroacetyl)-L-valyl]-3-azabicyclo[3.1.0]hexane-2-carboxamide] | 7370 | – | – | – |

Reference: US20250304559A1, “Ether-Linked Antiviral Compounds” (Pfizer Inc., priority 2021, published 2025)
